Where two headings read alike, the source gives them in different places.

Experiment [1] relates to NQO1 mRNA in BEAS-2B cells. Nature of the experiment: Beas2B NQO1 mRNA cell based assay. Further details: species or system human. The following applies: 24 h compound treatment, increase in NQO1 mRNA vs vehicle (0.1% DMSO), read-out: EC50. The essentials:
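Relative NQO1 transcript level derived by ΔΔCT with human β-actin as internal control, using direct-lysate one-step RT-qPCR. Cells were BEAS-2B, plated overnight then treated with compound for 24 h.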

For experiment [2], the target named is human KEAP1 (N-term, residues 321-609) (Homo sapiens, UniProt Q14145). Kind of experiment: biochemical.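 Also: fluorescence polarization competition assay of Kelch domain binding to NRF2, 12-point 1:3 dilution series from 10 µM, read after 1 h at room temperature, floor 10 nM.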
Chain of human KEAP1 (N-term, residues 321-609) (Q14145 321-609): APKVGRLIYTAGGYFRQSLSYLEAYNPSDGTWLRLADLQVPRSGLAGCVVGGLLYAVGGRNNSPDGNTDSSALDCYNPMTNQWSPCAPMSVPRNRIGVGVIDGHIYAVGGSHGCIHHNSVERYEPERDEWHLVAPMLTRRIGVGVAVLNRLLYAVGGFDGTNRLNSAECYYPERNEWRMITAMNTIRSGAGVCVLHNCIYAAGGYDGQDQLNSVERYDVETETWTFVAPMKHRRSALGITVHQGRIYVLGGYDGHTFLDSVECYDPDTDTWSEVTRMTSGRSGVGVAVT

One may read the EC50 as the concentration at which the effect is half-maximal. Usually IC50 stands for the point on the concentration scale where inhibition reaches its midpoint. Consider `Cn1nnc(COc2ccc(Cl)c3c2[C@@H](CN2CCCC2=O)N(C(=O)[C@H]2CCCC[C@]2(C)C(=O)O)CC3)c1C(F)(F)F` [Example 169, (1S,2S)-2-((S)-5-chloro-8-((1-methyl-5-(trifluoromethyl)-1H-1,2,3-triazol-4-yl)methoxy)-1-((2-oxopyrrolidin-1-yl)methyl)-1,2,3,4-tetrahydroisoquinoline-2-carbonyl)-1-methylcyclohexane-1-carboxylic acid], for which, in experiment [1] (Homo sapiens, BEAS-2B, 24 h), the EC50 was 140 nM. For the same molecule, the IC50 in experiment [2] was 62 nM.
For the molecule `CC(C)n1cc(COc2ccc(Br)c3c2[C@@H](CN2C[C@@H](C)CC2=O)N(C(=O)[C@@H]2CCCC[C@@H]2C(=O)O)CC3)nn1` [Example 77, (1S,2R)-2-((S)-5-Bromo-8-((1-isopropyl-1H-1,2,3-triazol-4-yl)methoxy)-1-(((S)-4-methyl-2-oxopyrrolidin-1-yl)methyl)-1,2,3,4-tetrahydroisoquinoline-2-carbonyl) cyclohexane-1-carboxylic acid], the EC50 in experiment [1] (Homo sapiens, BEAS-2B, 24 h) came out at 6.7 nM. Further, half-maximal inhibition in experiment [2] (IC50) required 7.8 nM.
With `C[C@]1(C(=O)O)CCCC[C@H]1C(=O)N1CCc2c(Cl)ccc(OCc3ncsc3C(F)F)c2[C@H]1CN1CC2(CC2)CC1=O` [Example 204, (1S,2R)-2-((S)-5-chloro-8-((5-(difluoromethyl)thiazol-4-yl)methoxy)-1-((6-oxo-5-azaspiro[2.4]heptan-5-yl)methyl)-1,2,3,4-tetrahydroisoquinoline-2-carbonyl)-1-methylcyclohexane-1-carboxylic acid], the EC50 in experiment [1] (Homo sapiens, BEAS-2B, 24 h) was 13 nM. In addition, in experiment [2], half-maximal inhibition (IC50) was put at 6.9 nM.
Regarding `CC(C)c1nc(COc2ccc(Cl)c3c2[C@@H](CN2CCCC2=O)N(C(=O)[C@@H]2CCCC[C@@H]2C(=O)O)CC3)no1` [Example 83, (1S,2R)-2-((S)-5-Chloro-8-((5-isopropyl-1,2,4-oxadiazol-3-yl)methoxy)-1-((2-oxopyrrolidin-1-yl)methyl)-1,2,3,4-tetrahydroisoquinoline-2-carbonyl) cyclohexane-1-carboxylic acid], in experiment [1] (Homo sapiens, BEAS-2B, 24 h), the EC50 worked out at 35 nM. Moreover, in experiment [2], the IC50 is 7.8 nM.
For `O=C(O)[C@H]1CCCC[C@H]1C(=O)N1CCc2c(Br)ccc(O[C@H]3CCN(C(=O)c4cncs4)C3)c2[C@H]1CN1CCCC1=O` [Example 63, (1S,2R)-2-((S)-5-bromo-1-((2-oxopyrrolidin-1-yl)methyl)-8-(((S)-1-(thiazole-5-carbonyl)pyrrolidin-3-yl)oxy)-1,2,3,4-tetrahydroisoquinoline-2-carbonyl)cyclohexane-1-carboxylic acid], the EC50 in experiment [1] (Homo sapiens, BEAS-2B, 24 h) came out at 84 nM. In experiment [2], this molecule registered an IC50 of 9.1 nM.
For the molecule `Cn1nnc(COc2ccc(Cl)c3c2[C@@H](CN2CC4(CC4)CC2=O)N(C(=O)[C@@H]2CC=CC[C@]2(C)C(=O)O)CC3)c1C(F)F` [Example 201, (1S,6R)-6-((S)-5-chloro-8-((5-(difluoromethyl)-1-methyl-1H-1,2,3-triazol-4-yl)methoxy)-1-((6-oxo-5-azaspiro[2.4]heptan-5-yl)methyl)-1,2,3,4-tetrahydroisoquinoline-2-carbonyl)-1-methylcyclohex-3-ene-1-carboxylic acid], in experiment [1] (Homo sapiens, BEAS-2B, 24 h), the EC50 was found to be 0.33 nM. In experiment [2], this molecule came in with an IC50 of 3.3 nM.
`CC(C)n1cc(COc2ccc(Br)c3c2[C@@H](CN2CC4(CC4)CC2=O)N(C(=O)[C@@H]2CCCC[C@@H]2C(=O)O)CC3)nn1` [Example 76, (1S,2R)-2-((S)-5-bromo-8-((1-isopropyl-1H-1,2,3-triazol-4-yl)methoxy)-1-((6-oxo-5-azaspiro[2.4]heptan-5-yl)methyl)-1,2,3,4-tetrahydroisoquinoline-2-carbonyl) cyclohexane-1-carboxylic acid]: the EC50 in experiment [1] (Homo sapiens, BEAS-2B, 24 h) worked out at 2.5 nM. The same molecule came in with an IC50 in experiment [2] of 6.7 nM.
Consider `O=C(O)[C@H]1CCCC[C@H]1C(=O)N1CCc2cccc(O[C@H]3CCN(C(=O)c4cncs4)C3)c2[C@H]1CN1Cc2ccccc2C1=O` [Example 15, (1S,2R)-2-((S)-1-((1-Oxoisoindolin-2-yl)methyl)-8-(((S)-1-(thiazole-5-carbonyl)pyrrolidin-3-yl)oxy)-1,2,3,4-tetrahroisoquinoline-2-carbonyl)cyclohexane-1-carboxylic acid], for which the EC50 in experiment [1] (Homo sapiens, BEAS-2B, 24 h) came to 850 nM. The same molecule gave an IC50 in experiment [2] of 5.1 nM.
`O=C(O)[C@H]1CCCC[C@H]1C(=O)N1CCc2c(Cl)ccc(OCc3nnc4ccccn34)c2[C@H]1CN1Cc2ccccc2C1=O` [Example 50]: in experiment [1] (Homo sapiens, BEAS-2B, 24 h), the EC50 is 2 nM. Also, half-maximal inhibition in experiment [2] (IC50) was put at 7.7 nM.
For the molecule `Cn1nnc(COc2ccc(Cl)c3c2[C@@H](CN2CC4(CC4)CC2=O)N(C(=O)[C@@H]2C[C@H](O)CC[C@]2(C)C(=O)O)CC3)c1C(F)F` [Example 225, (1S,2R,4R)-2-((S)-5-chloro-8-((5-(difluoromethyl)-1-methyl-1H-1,2,3-triazol-4-yl)methoxy)-1-((6-oxo-5-azaspiro[2.4]heptan-5-yl)methyl)-1,2,3,4-tetrahydroisoquinoline-2-carbonyl)-4-hydroxy-1-methylcyclohexane-1-carboxylic acid], the EC50 in experiment [1] (Homo sapiens, BEAS-2B, 24 h) is 110 nM. Also, the IC50 in experiment [2] came to 6.5 nM.
Consider `C[C@]1(C(=O)O)CCC[C@H]1C(=O)N1CCc2c(Cl)ccc(OCc3nnn4c3CCCC4)c2[C@H]1CN1CC2(CC2)CC1=O` [Example 180, (1S,2R)-2-((S)-5-chloro-1-((6-oxo-5-azaspiro[2.4]heptan-5-yl)methyl)-8-((4,5,6,7-tetrahydro-[1,2,3]triazolo[1,5-a]pyridin-3-yl)methoxy)-1,2,3,4-tetrahydroisoquinoline-2-carbonyl)-1-methylcyclopentane-1-carboxylic acid], for which the concentration giving a half-maximal response (EC50) in experiment [1] (Homo sapiens, BEAS-2B, 24 h) came to 1.1 nM. The molecule also gave an IC50 in experiment [2] of 7.6 nM.
The like results for `CC(C)n1cc(COc2ccc(F)c3c2[C@@H](CN2Cc4ccccc4C2=O)N(C(=O)[C@@H]2CCCC[C@@H]2C(=O)O)CC3)nn1` [Example 58, (1S,2R)-2-((S)-5-fluoro-8-((1-isopropyl-1H-1,2,3-triazol-4-yl)methoxy)-1-((1-oxoisoindolin-2-yl)methyl)-1,2,3,4-tetrahydroisoquinoline-2-carbonyl)cyclohexane-1-carboxylic acid] were, in that order, 68 nM and 8 nM.
The like results for `Cn1nnc(COc2ccc(Cl)c3c2[C@@H](CN2CCCC2=O)N(C(=O)C2CCOC2C(=O)O)CC3)c1C(F)F` (stereo partly drawn) [Example 97, 3-((S)-5-chloro-8-((5-(difluoromethyl)-1-methyl-1H-1,2,3-triazol-4-yl)methoxy)-1-((2-oxopyrrolidin-1-yl)methyl)-1,2,3,4-tetrahydroisoquinoline-2-carbonyl) tetrahydrofuran-2-carboxylic acid] were, in that order, 750 nM and 17 nM.
On to `CC1CCN(C[C@@H]2c3c(OCc4cn(C(C)C)nn4)ccc(Br)c3CCN2C(=O)[C@@H]2CCCC[C@@H]2C(=O)O)C1=O` (single isomer, unassigned) [Example 73], for which the EC50 in experiment [1] worked out at 130 nM. Moreover, half-maximal inhibition in experiment [2] (IC50) required 16 nM.
On to `Cc1nnc(COc2ccc(Cl)c3c2[C@@H](CN2CC4(CC4)CC2=O)N(C(=O)[C@@H]2CCCC[C@]2(C)C(=O)O)CC3)n1C` [Example 179, (1S,2R)-2-((S)-5-chloro-8-((4,5-dimethyl-4H-1,2,4-triazol-3-yl)methoxy)-1-((6-oxo-5-azaspiro[2.4]heptan-5-yl)methyl)-1,2,3,4-tetrahydroisoquinoline-2-carbonyl)-1-methylcyclohexane-1-carboxylic acid], for which the concentration for a half-maximal effect (EC50) in experiment [1] (Homo sapiens, BEAS-2B, 24 h) is 4.1 nM. The IC50 in experiment [2] was 5.3 nM.
Take `Cn1nnc(COc2ccc(Cl)c3c2[C@@H](CN2Cc4ccccc4C2=O)N(C(=O)[C@@H]2CCCC[C@@H]2C(=O)O)CC3)c1C(F)(F)F` [Example 54, (1S,2R)-2-((S)-5-Chloro-8-((1-methyl-5-(trifluoromethyl)-1H-1,2,3-triazol-4-yl)methoxy)-1-((1-oxoisoindolin-2-yl)methyl)-1,2,3,4-tetrahydroisoquinoline-2-carbonyl)cyclohexane-1-carboxylic acid]: the EC50 in experiment [1] (Homo sapiens, BEAS-2B, 24 h) was found to be 7.2 nM. The molecule further returned a concentration for half-maximal inhibition (IC50) in experiment [2] of 3.6 nM.
As to `C[C@@H]1CC(=O)N(C[C@@H]2c3c(OCc4cn(C)nn4)ccc(Cl)c3CCN2C(=O)[C@@H]2CCCC[C@]2(C)C(=O)O)C1` [Example 161, (1S,2R)-2-((S)-5-chloro-8-((1-methyl-1H-1,2,3-triazol-4-yl)methoxy)-(((R)-4-methyl-2-oxopyrrolidin-1-yl)methyl)-1,2,3,4-tetrahydroisoquinoline-2-carbonyl)-1-methylcyclohexane-1-carboxylic acid], the EC50 in experiment [1] (Homo sapiens, BEAS-2B, 24 h) turned out to be 11 nM. In experiment [2], this molecule had an IC50 of 7.9 nM.
In the case of `Cn1cnc2cc(COc3ccc(Cl)c4c3[C@@H](CN3CCCC3=O)N(C(=O)[C@@H]3CCCC[C@@H]3C(=O)O)CC4)cnc21` [Example 89, (1S,2R)-2-((S)-5-Chloro-8-((3-methyl-3H-imidazo[4,5-b]pyridin-6-yl)methoxy)-1-((2-oxopyrrolidin-1-yl)methyl)-1,2,3,4-tetrahydroisoquinoline-2-carbonyl) cyclohexane-1-carboxylic acid], in experiment [1] (Homo sapiens, BEAS-2B, 24 h), the EC50 stood at 5.1 nM. The molecule also came in with an IC50 in experiment [2] of 8.2 nM.
Regarding `CC(=O)N1CC[C@H](Oc2ccc(Cl)c3c2[C@@H](CN2C(=O)c4ccccc4C2=O)N(C(=O)[C@@H]2CCCC[C@@H]2C(=O)O)CC3)C1` [Example 12, (1S,2R)-2-((S)-8-(((S)-1-Acetylpyrrolidin-3-yl)oxy)-5-chloro-1-((1,3-dioxoisoindolin-2-yl)methyl)-1,2,3,4-tetrahydroisoquinoline-2-carbonyl)cyclohexane-1-carboxylic acid], in experiment [1] (Homo sapiens, BEAS-2B, 24 h), the EC50 stood at 8.6 nM. Further, the IC50 in experiment [2] was determined as 5.8 nM.
Consider `Cn1nnc(COc2ccc(Cl)c3c2[C@@H](CN2CCCC2=O)N(C(=O)[C@@H]2CCCC[C@]2(C)C(=O)O)CC3)c1C(F)F` [Example 91, (1S,2R)-2-((S)-5-Chloro-8-((5-(difluoromethyl)-1-methyl-1H-1,2,3-triazol-4-yl)methoxy)-1-((2-oxopyrrolidin-1-yl)methyl)-1,2,3,4-tetrahydroisoquinoline-2-carbonyl)-1-methylcyclohexane-1-carboxylic acid], for which the 50% effective concentration (EC50) in experiment [1] (Homo sapiens, BEAS-2B, 24 h) was found to be 0.21 nM. In experiment [2], this molecule yielded an IC50 of 6.1 nM.

Source of the values: patent US12098148B2, “Therapeutic compounds” (C4X Discovery Limited, priority 2018, dated 2024).
